In US9365541B2, “Compounds for use in the treatment of parasitic diseases” (IRBM—SCIENCE PARK S.P.A., priority 2012, dated 2016):

Columns and labels:
human HDAC1 = biological target: T1, human HDAC1 (Homo sapiens, UniProt Q13547); assay: Homo sapiens HDAC1 inhibition assay (Fluor-de-Lys, enzymatic); format: biochemical; details: human HDAC enzymatic assay; read-out: hHDAC IC50
T1 construct: made in house; host or cells: HeLa (ATCC CCL-2), mammalian cells
How it was run: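 Product developed with trypsin developer containing 2 μM TSA to stop the reaction; fluorescence measures deacetylase activity, inversely related to inhibition.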

[1] = system: Plasmodium falciparum 3D7; assay: P. falciparum growth inhibition assay (Pf-LDH); format: cell-based; details: Plasmodium falciparum, Erythrocyte; P. falciparum 3D7 infected erythrocytes, 72 h incubation, PfLDH readout
How it was run: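 P. falciparum 3D7 (chloroquine-sensitive) at 0.25% parasitemia and 2% hematocrit was incubated with compound for 72 h at 37° C under 4% CO2/3% O2/93% N2. After freeze-thaw, PfLDH activity was read at 650 nm with lactate/APAD/NBT/diaphorase mix (pH 8.0).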

T1 sequence (Q13547 whole entry): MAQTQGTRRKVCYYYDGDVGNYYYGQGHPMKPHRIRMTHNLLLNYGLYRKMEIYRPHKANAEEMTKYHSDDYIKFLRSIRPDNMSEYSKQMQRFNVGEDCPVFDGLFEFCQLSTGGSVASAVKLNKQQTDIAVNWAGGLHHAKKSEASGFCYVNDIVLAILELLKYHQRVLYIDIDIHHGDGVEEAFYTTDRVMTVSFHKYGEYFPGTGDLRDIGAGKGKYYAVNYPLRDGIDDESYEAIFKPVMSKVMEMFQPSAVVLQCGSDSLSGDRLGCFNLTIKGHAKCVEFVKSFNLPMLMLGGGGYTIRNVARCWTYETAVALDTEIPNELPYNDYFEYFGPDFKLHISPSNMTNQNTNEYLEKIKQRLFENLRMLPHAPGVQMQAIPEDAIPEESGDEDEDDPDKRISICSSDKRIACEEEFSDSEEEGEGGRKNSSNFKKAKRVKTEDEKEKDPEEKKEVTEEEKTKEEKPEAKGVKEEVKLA

Row | IC50 (human HDAC1) | EC50 [1] | SMILES
1 | > 5000 nM | > 5 µM | CNC(=O)CCCCC[C@H](NC(=O)Cn1ccnn1)c1ncc(-c2ccc(-c3ccn(C)n3)cc2)[nH]1 [Entry 69, (S)-7-(2-(1H-1,2,3-triazol-1-yl)acetamido)-N-methyl-7-(5-(4-(1-methyl-1H-pyrazol-3-yl)phenyl)-1H-imidazol-2-yl)heptanamide]
2 | < 1000 nM | < 1 µM | COc1ccc2[nH]c(C)c(CC(=O)N[C@@H](CCCCCC(N)=O)c3nnc(-c4ccc5ccccc5c4)[nH]3)c2c1 [Entry 70, (S)-7-(2-(5-methoxy-2-methyl-1H-indol-3-yl)acetamido)-7-(5-(naphthalen-2-yl)-4H-1,2,4-triazol-3-yl)heptanamide]
3 | < 1000 nM | < 1 µM | CNC(=O)CCCCC[C@H](NC(=O)C1CN(C)C1)c1ncc(-c2cc3ccccc3nc2OC)o1 [Entry 71, (S)-N-(1-(5-(2-methoxyquinolin-3-yl)oxazol-2-yl)-7-(methylamino)-7-oxoheptyl)-1-methylazetidine-3-carboxamide]
4 | < 1000 nM | 1 to 5 µM | CNC(=O)CCCCC[C@H](NC(=O)OCc1ccccc1)c1ncc(-c2ccc3ccccc3c2)[nH]1 [Entry 72, (S)-benzyl (7-(methylamino)-1-(5-(naphthalen-2-yl)-1H-imidazol-2-yl)-7-oxo-heptyl)carbamate]
5 | 1000 to 5000 nM | 1 to 5 µM | CNC(=O)CCCCC[C@H](NC(=O)c1cc2cc(OC)ccc2[nH]1)c1ncc(-c2ccc3ccccc3c2)[nH]1 [Entry 73, (S)-5-methoxy-N-(7-(methylamino)-1-(5-(naphthalen-2-yl)-1H-imidazol-2-yl)-7-oxoheptyl)-1H-indole-2-carboxamide]
6 | < 1000 nM | 1 to 5 µM | CNC(=O)CCCCC[C@H](NC(=O)Cn1c(=O)oc2ccccc21)c1ncc(-c2ccc3ccccc3c2)[nH]1 [Entry 74]
7 | < 1000 nM | < 1 µM | CNC(=O)CCCCC[C@H](NC(=O)Cc1c(C)[nH]c2ccc(OC)cc12)c1ncc(-c2ccc3ccccc3c2)[nH]1 [Entry 75, (S)-7-(2-(5-methoxy-2-methyl-1H-indol-3-yl)acetamido)-N-methyl-7-(5-(naphthalen-2-yl)-1H-imidazol-2-yl)heptanamide]
8 | 1000 to 5000 nM | 1 to 5 µM | CNC(=O)CCCCC[C@H](NC(=O)Cc1cnccn1)c1ncc(-c2cc3ccccc3nc2OC)[nH]1 [Entry 76]
9 | 1000 to 5000 nM | 1 to 5 µM | CNC(=O)CCCCC[C@H](NC(=O)c1nnc(C)o1)c1ncc(-c2cc3ccccc3nc2OC)[nH]1 [Entry 77, (S)-N-(1-(5-(2-methoxyquinolin-3-yl)-1H-imidazol-2-yl)-7-(methylamino)-7-oxoheptyl)-5-methyl-1,3,4-oxadiazole-2-carboxamide]
10 | 1000 to 5000 nM | > 5 µM | CNC(=O)CCCCC[C@H](NC(=O)c1cncs1)c1ncc(-c2ccc(CN(C)C)cc2)[nH]1 [Entry 78, (S)-N-(1-(5-(4-((dimethyl-amino)methyl)phenyl)-1H-imidazol-2-yl)-7-(methylamino)-7-oxoheptyl)thiazole-5-carboxamide]
11 | 1000 to 5000 nM | > 5 µM | CNC(=O)CCCCC[C@H](NC(=O)c1cncs1)c1ncc(-c2cccc3c2OCCO3)[nH]1 [Entry 79]
12 | 1000 to 5000 nM | 1 to 5 µM | CNC(=O)CCCCC[C@H](NC(=O)c1cncs1)c1ncc(-c2cc3ccccc3nc2Cl)[nH]1 [Entry 80, (S)-N-(1-(5-(2-chloroquinolin-3-yl)-1H-imidazol-2-yl)-7-(methylamino)-7-oxoheptyl)thiazole-5-carboxamide]
13 | > 5000 nM | > 5 µM | CNC(=O)CCCCC[C@H](NC(=O)c1cncs1)c1ncc(-c2ccc(-n3nc(C)cc3C)cc2)[nH]1 [Entry 81, (S)-N-(1-(5-(4-(3,5-dimethyl-1H-pyrazol-1-yl)phenyl)-1H-imidazol-2-yl)-7-(methylamino)-7-oxoheptyl)thiazole-5-carboxamide]
